Our source for the EC50 values is patent US9409922B2, “Imidazopyridine macrocycles as inhibitors of human immunodeficiency virus replication” (priority 2014, dated 2016).

The subject of one experiment is NL-RLuc virus. The experiment is described as follows: Inhibition of HIV replication: NL-RLuc reporter virus in MT-2 cells, luciferase readout. The following applies: Human immunodeficiency virus 1, MT2, 120 h, MT-2 cells infected with NL-RLuc virus, 5 days of incubation, 10% FBS, at least 2 experiments. It counts as cell-based. The source says: Inhibition of HIV Replication:
A recombinant NL-RLuc proviral clone was constructed in which a section of the nef gene from NL4-3 was replaced with the Renilla Luciferase gene. This virus is fully infectious and can undergo multiple cycles of replication in cell culture. In addition, the luciferous reporter provides a simple and easy method for quantitating the extent of virus growth and consequently, the antiviral activity of test compounds. The plasmid pNLRLuc contains the proviral NL-Rluc DNA cloned into pUC 18 at the PvuII site. The NL-RLuc virus was prepared by transfection of 293T cells with the plasmid pNLRLuc. Transfections were performed using the LipofectAMINE PLUS kit from Invitrogen (Carlsbad, Calif.) according to the manufacturer and the virus generated was titered in MT-2 cells. For susceptibility analyses, the titrated virus was used to infect MT-2 cells in the presence of compound, and after 5 days of incubation, cells were processed and quantitated for virus growth by the amount of expressed luciferase. Assay media was RPMI 1640 supplemented with 10% heat inactivated fetal bovine serum (FBS), 100 units/ml penicillin G/100 units/ml streptomycin, 10 mM HEPES buffer pH 7.55 and 2 mM L-glutamine. The results from at least 2 experiments were used to calculate the EC50 values. Luciferase was quantitated using the Dual Luciferase kit from Promega (Madison, Wis.). Susceptibility of viruses to compounds was determined by incubation in the presence of serial dilutions of the compound. The 50% effective concentration (EC50) was calculated by using the exponential form of the median effect equation where (Fa)=1/[1+(ED50/drug conc.)^m](Johnson V A, Byington R T. Infectivity Assay. In Techniques in HIV Research. ed. Aldovini A, Walker B D. 71-76. New York: Stockton Press. 1990).
A word on the EC50: it is the concentration at which the effect is half-maximal. Compound `Cc1cc2c(cc1C)-c1cccc(c1)-c1cn3c(c([C@H](OC(C)(C)C)C(=O)O)c(C)cc3n1)N1CCC(C)(CC1)OCCCC[C@H](C)O2` [Example 19, (2S)-2-(tert-Butoxy)-2-[(22S)-4,17,18,22,28-pentamethyl-21,27-dioxa-1,7,34-triazahexacyclo[26.2.2.1^6,^9.1^10,^14.0^2,^7.0^15,^20]tetratriaconta-2,4,6(34),8,10(33),11,13,15(20),16,18-decaen-3-yl]acetic acid] gave an EC50 of 15 nM. On the same count and under the same terms, as for `Cc1cc2nc3cn2c(c1[C@H](OC(C)(C)C)C(=O)O)N1CCC(C)(CC1)OCCCC[C@H](C)Oc1cc(F)ccc1-c1cccc-3c1` [Example 7, (2S)-2-(tert-Butoxy)-2-[(22S)-4,17,22,28-tetramethyl-21,27-dioxa-1,7,34-triazahexacyclo[26.2.2.1^6,^9.1^10,^14.0^2,^7.0^15,^20]tetratriaconta-2,4,6(34),8,10(33),11,13,15(20),16,18-decaen-3-yl]acetic acid], the figure is 5 nM.

On to `Cc1cc2nc3cn2c(c1[C@H](OC(C)(C)C)C(=O)O)N1CCC(C)(CC1)OC/C=C\C[C@H](C)Oc1cc(F)c(F)cc1-c1cccc-3c1` [Example 12, (2S)-2-(tert-Butoxy)-2-[(22S)-17,18-difluoro-4,22,28-trimethyl-21,27-dioxa-1,7,34-triazahexacyclo[26.2.2.1^6,^9.1^10,^14.0^2,^7.0^15,^20]tetratriaconta-2,4,6(34),8,10(33),11,13,15(20),16,18,24-undecaen-3-yl]acetic acid], for which the EC50 was determined as 3 nM. Same read-out and setting: as for `Cc1cc2nc3cn2c(c1[C@H](OC(C)(C)C)C(=O)O)N1CCC(C)(CC1)OCCCCCOc1ccc(F)cc1CNC3=O` [Example 3, (2S)-2-(tert-Butoxy)-2-{15-fluoro-4,26-dimethyl-10-oxo-19,25-dioxa-1,7,11,31-tetraazapentacyclo[24.2.2.1^6,^9.0^2,^7.0^13,^18]hentriaconta-2,4,6(31),8,13(18),14,16-heptaen-3-yl}acetic acid], the figure is 27 nM.

`Cc1c([C@H](OC(C)(C)C)C(=O)O)c2n3cc(nc3c1Cl)-c1cccc(c1)-c1cc(F)ccc1O[C@@H](C)CCCCOC1(C)CCN2CC1` [Example 61, (2S)-2-(tert-Butoxy)-2-[(22S)-5-chloro-17-fluoro-4,22,28-trimethyl-21,27-dioxa-1,7,34-triazahexacyclo[26.2.2.1^6,^9.1^10,^14.0^2,^7.0^15,^20]tetratriaconta-2,4,6(34),8,10(33),11,13,15(20),16,18-decaen-3-yl]acetic acid] displayed an EC50 of 15 nM. Still for that read-out and setting: the same measure for `CC(=O)c1c(C)c([C@H](OC(C)(C)C)C(=O)O)c2n3cc(nc13)-c1cccc(c1)-c1cc(F)ccc1O[C@@H](C)CCCCOC1(C)CCN2CC1` [Example 64, (2S)-2-[(22S)-5-Acetyl-17-fluoro-4,22,28-trimethyl-21,27-dioxa-1,7,34-triazahexacyclo[26.2.2.1^6,^9.1^10,^14.0^2,^7.0^15,^20]tetratriaconta-2,4,6(34),8,10(33),11,13,15(20),16,18-decaen-3-yl]-2-(tert-butoxy)acetic acid]: 6 nM; for `Cc1ccc2c(c1)-c1cccc(c1)-c1cn3c(c([C@H](OC(C)(C)C)C(=O)O)c(C)cc3n1)N1CCC(C)(CC1)OCCCC[C@H](C)O2` [Example 8, (2S)-2-(tert-Butoxy)-2-[(22S)-4,17,22,28-tetramethyl-21,27-dioxa-1,7,34-triazahexacyclo[26.2.2.1^6,^9.1^10,^14.0^2,^7.0^15,^20]tetratriaconta-2,4,6(34),8,10(33),11,13,15(20),16,18-decaen-3-yl]acetic acid]: 15 nM. Compound `Cc1c([C@H](OC(C)(C)C)C(=O)O)c2n3cc(nc3c1Br)-c1cccc(c1)-c1cc(F)ccc1O[C@@H](C)CCCCOC1(C)CCN2CC1` [Example 32, (2S)-2-[(22S)-5-Bromo-17-fluoro-4,22,28-trimethyl-21,27-dioxa-1,7,34-triazahexacyclo[26.2.2.1^6,^9.1^10,^14.0^2,^7.0^15,^20]tetratriaconta-2,4,6(34),8,10(33),11,13,15(20),16,18-decaen-3-yl]-2-(tert-butoxy)acetic acid] registered an EC50 of 10 nM.

Turning to `Cc1cc2nc3cn2c(c1[C@H](OC(C)(C)C)C(=O)O)N1CCC(C)(CC1)OC/C=C/C[C@H](C)Oc1cc(F)c(F)cc1-c1cccc-3c1` [Example 11, (2S)-2-(tert-Butoxy)-2-[(22S)-17,18-difluoro-4,22,28-trimethyl-21,27-dioxa-1,7,34-triazahexacyclo[26.2.2.1^6,^9.1^10,^14.0^2,^7.0^15,^20]tetratriaconta-2,4,6(34),8,10(33),11,13,15(20),16,18,24-undecaen-3-yl]acetic acid], the EC50 was 12 nM. `Cc1c([C@H](OC(C)(C)C)C(=O)O)c2n3cc(nc3c1C(C)(C)O)-c1cccc(c1)-c1cc(F)ccc1O[C@@H](C)CCCCOC1(C)CCN2CC1` [Example 65, (2S)-2-(tert-Butoxy)-2-[(22S)-17-fluoro-5-(2-hydroxypropan-2-yl)-4,22,28-trimethyl-21,27-dioxa-1,7,34-triazahexacyclo[26.2.2.1^6,^9.1^10,^14.0^2,^7.0^15,^20]tetratriaconta-2,4,6(34),8,10(33),11,13,15(20),16,18-decaen-3-yl]acetic acid] came in with an EC50 of 6 nM. The same measure, in the same setting: as for `Cc1cc2nc3cn2c(c1[C@H](OC(C)(C)C)C(=O)O)N1CCC(C)(CC1)OCCCCC[C@H](C)Oc1cc(F)cc(F)c1-c1cccc-3c1` [Example 16, (2S)-2-(tert-Butoxy)-2-[(22S)-16,18-difluoro-4,22,28-trimethyl-21,27-dioxa-1,7,34-triazahexacyclo[26.2.2.1^6,^9.1^10,^14.0^2,^7.0^15,^20]tetratriaconta-2,4,6(34),8,10(33),11,13,15(20),16,18-decaen-3-yl]acetic acid], the figure is 4 nM; as for `Cc1ccc2c(c1)-c1cccc(c1)-c1cn3c(c([C@H](OC(C)(C)C)C(=O)O)c(C)cc3n1)N1CCC(C)(CC1)OC/C=C/C[C@H](C)O2` [Example 9, (2S)-2-(tert-Butoxy)-2-[(22S)-4,17,22,28-tetramethyl-21,27-dioxa-1,7,34-triazahexacyclo[26.2.2.1^6,^9.1^10,^14.0^2,^7.0^15,^20]tetratriaconta-2,4,6(34),8,10(33),11,13,15(20),16,18,24-undecaen-3-yl]acetic acid], 9 nM. Compound `Cc1c([C@H](OC(C)(C)C)C(=O)O)c2n3cc(nc3c1C)-c1cccc(c1)-c1cc(F)ccc1O[C@@H](C)CCCCOC1(C)CCN2CC1` [Example 33, (2S)-2-(tert-Butoxy)-2-[(22S)-17-fluoro-4,5,22,28-tetramethyl-21,27-dioxa-1,7,34-triazahexacyclo[26.2.2.1^6,^9.1^10,^14.0^2,^7.0^15,^20]tetratriaconta-2,4,6(34),8,10(33),11,13,15(20),16,18-decaen-3-yl]acetic acid] returned an EC50 of 25 nM.

The experiment is the same for the next values; noted with them: MT-2 cells infected with NL-RLuc virus, 5 days of incubation, 10% FBS, at least 2 experiments.
Compound `Cc1cc2c(cc1F)-c1cccc(c1)-c1nc3cc(C)c([C@H](OC(C)(C)C)C(=O)O)c(n3c1Br)N1CCC(C)(CC1)OCCCC[C@H](C)O2` [Example 28, (2S)-2-[(22S)-8-Bromo-17-fluoro-4,18,22,28-tetramethyl-21,27-dioxa-1,7,34-triazahexacyclo[26.2.2.1^6,^9.1^10,^14.0^2,^7.0^15,^20]tetratriaconta-2,4,6(34),8,10(33),11,13,15(20),16,18-decaen-3-yl]-2-(tert-butoxy)acetic acid] gave an EC50 of 8 nM.
